According to US20140004458A1, “MAGENTA TONER” (CANON KABUSHIKI KAISHA, priority 2011, published 2014):

How the values were obtained:
[1] = evaluation of lightness and saturation of image sample (L*a*b* chromaticity); format: physicochemical; conditions: toner using the compound, in words
Method: Image samples were formed using the resulting toners. The lightness and saturation of the samples were evaluated. To compare image characteristics, an image output test was made using a modified apparatus of LBP-5300 (manufactured by CANON KABUSHIKI KAISHA) as an image forming apparatus. The modification was performed in such a manner that a developing blade in a process cartridge was replaced with a stainless blade having a thickness of […] and that a blade bias of −200 V against a developing bias that was applied to a developing roller serving as a toner support was applicable.
With respect to each of the resulting image samples, chromaticity (L*, a*, b*) in the L*a*b* color system was measured with a reflection densitometer (Model: SpectroLino, manufactured by GretagMacbeth).
In the L*a*b* space, color coordinates indicating the magenta color of the Japan Color 2001 are defined as X (L1, a1, b1). In the L*a*b* space, coordinates of an intersection point of a plane including the L* axis and the coordinates X and the a*b* curve of the image sample obtained by the chromaticity measurement are defined as Y (L2, a2, b2). The a*b* curve is obtained by forming a plurality of image samples having different toner adhesion amounts. The difference Δc (=c2−c1) between a c* value [=c2={(a2^2+b2^2)}^1/2] at the intersection point Y and a c* value [=c1={(a1^2+b1^2)}^1/2] at the coordinates X was calculated. The difference ΔL (=L2−L1) between an L* value (=L2) at the intersection point Y and an L* value (=L1) at the coordinates X was calculated.
The lightness and saturation were evaluated on the basis of the following evaluation criteria.
A: Δc is 0 or more, and ΔL is 0 or more; B: Δc is −5 or more, and ΔL is −5 or more, excluding the case of Class A described above; and C: Δc is less than −5, or ΔL is less than −5.
In the case where Δc was −5 or more and ΔL was −5 or more, the sample was evaluated to have satisfactory lightness and saturation.

[2] = evaluation of lightfastness of image sample (Atlas Weather-Ometer Ci4000); format: physicochemical; conditions: toner using the compound, in words; for lightfastness: satisfactory = ΔE less than 10 after 60 hours
Method: The image samples were placed in Atlas Weather-Ometer Ci4000 (from Toyo Seiki Seisaku-sho, Ltd.) and exposed for 60 hours. In this case, measurement conditions were as follows: black panel temperature: 50° C., chamber temperature: 40° C., relative humidity: 70%, and irradiance: 0.39 W/m^2 (340 nm).
The chromaticity (L*, a*, b*) in the L*a*b* color system was measured with the reflection densitometer (Model: SpectroLino, manufactured by GretagMacbeth) before and after the exposure test. The color difference (ΔE) was calculated from the following expression on the basis of measurements of the color characteristics:
Color difference(ΔE)={(a*before test−a*after test)^2+(b*before test−b*after test)^2+(L*before test−L*after test)^2}^1/2
In the case where ΔE was less than 10 after 60 hours, the sample was evaluated to have satisfactory lightfastness.

| Structure (SMILES) | lightness [1] | balance between the saturation and lightfastness [2] | lightness and saturation [1] | lightfastness [2] |
| --- | --- | --- | --- | --- |
| CCN(CC)c1ccc2c(c1)Oc1cc(N(CC)CC)ccc1C21OC(=O)c2ccccc21 [(1)] | satisfactory | not provided | – | – |
| Cc1ccc(Nc2ccc3c4c(cc(=O)n3C)-c3ccccc3C(=O)c24)cc1 [(2)] | – | – | not sufficient | satisfactory |
| Cc1ccc(/N=N/c2c(O)c(C(=O)O)cc3ccccc23)c(S(=O)(=O)O)c1 [(3)] | – | – | not sufficient | satisfactory |
